Test results: paper PMC2918227 (Bioorganic & medicinal chemistry, 2010)

Tests used:
human 5-HT2A receptor = human 5-HT2A receptor (Homo sapiens, UniProt P28223); assay: 5HT2A Ke determination in FLIPR assay; type: cell-based
[1] = Stability of the isolated free base on storage; type: physicochemical; settings: yellow oil, converted to hydrochloride salt for long-term storage

Chain of human 5-HT2A receptor (P28223 whole entry): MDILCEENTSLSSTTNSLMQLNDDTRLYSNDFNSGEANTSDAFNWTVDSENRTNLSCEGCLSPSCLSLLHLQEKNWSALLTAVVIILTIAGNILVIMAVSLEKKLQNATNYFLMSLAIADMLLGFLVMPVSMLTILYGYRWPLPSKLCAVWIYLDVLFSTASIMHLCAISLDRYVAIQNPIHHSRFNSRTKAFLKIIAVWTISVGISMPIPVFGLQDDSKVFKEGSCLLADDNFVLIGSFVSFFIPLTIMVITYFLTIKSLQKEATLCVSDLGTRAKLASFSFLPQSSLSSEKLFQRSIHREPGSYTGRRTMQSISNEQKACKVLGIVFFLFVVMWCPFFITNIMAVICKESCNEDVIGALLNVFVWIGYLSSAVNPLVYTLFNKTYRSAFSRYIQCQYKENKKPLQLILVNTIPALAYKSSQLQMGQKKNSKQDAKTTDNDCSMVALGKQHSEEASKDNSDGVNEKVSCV

Row | Kb (human 5-HT2A receptor) [µM] | Compound | stability of the compound [1]
1 | > 10 | COc1cc2c3c(c1OC)-c1cc4c(cc1CC3N(S(C)(=O)=O)CC2)OCO4 (stereo not drawn) [Compound 8d, 1,2-dimethoxy-6-methanesulfonyl-5,6,6a,7-tetrahydro-4H-benzo[de][1,3]benzodioxolo[5,6-g]quinoline] | –
2 | > 10 | COc1cc2c3c(c1OC)-c1cc4c(cc1CC3N(C(C)=O)CC2)OCO4 (stereo not drawn) [Compound 8c, 1,2-dimethoxy-6-acetyl-5,6,6a,7-tetrahydro-4H-benzo[de][1,3]benzodioxolo[5,6-g]quinoline] | –
3 | – | COc1cc2c3c(c1OC)-c1cc4c(cc1CC3NCC2)OCO4 (stereo not drawn) [Compound 8a, 1,2-dimethoxy-5,6,6a,7-tetrahydro-4H-benzo[de][1,3]benzodioxolo[5,6-g]quinoline] | unstable
